Measurements taken from article PMC10609273, “Radiosynthesis and Early Evaluation of a Positron Emission Tomography Imaging Probe [^18F]AGAL Targeting Alpha-Galactosidase A Enzyme for Fabry Disease” (Molecules, 2023).

How the values were obtained:
wild type mice = test: Dynamic in vivo PET/CT imaging after intravenous injection; design: species or system mouse; conditions: i.v.
Method: After intravenous injection of [^18F]AGAL in wild type mice, the radioactivity rapidly accumulated in key organs such as the kidneys, liver, and heart, with the kidneys having the highest peak standardized uptake value (SUV ~18) at 3 min followed by rapid washout from all organs to lower than 1 SUV by 30 min and remaining low until the end of the 90 min scan (Figure 6A,B).
Figure 6 Dynamic in vivo PET/CT imaging in wild type mice after [^18F]AGAL intravenous injection. Time course of average radioactivity concentrations (n = 4, Mean ± SD) from various organs shown for full 90 min (A) and first 10 min (B) after tracer injection. (C) Representative coronal sections of PET/CT scan images from a wild type mouse with frames averaged between 0–2 min, 2–10 min, 10–30 min, 30–60 min, and 60–90 min are shown. SUV: Standardized uptake value.
[^18F]AGAL PET imaging was performed on a dedicated small animal PET/CT scanner (Siemens Multimodality Inveon, Siemens Medical Solutions USA Inc., Knoxville, TN, USA). The wild-type mice (n = 3, male 129S6) were anesthetized with 3% isoflurane/medical air inhalation prior to the radiotracer injection and throughout the scan duration. A bolus intravenous injection (via the lateral tail vein) of [^18F]AGAL (~7.4 MBq) was administered followed by dynamic PET scans in list mode for 90 min. After the PET acquisition, a low-dose CT scan was acquired (80 kVp, 0.5 mA) for anatomical reference and to provide guidance for the delineation of selected tissues volume of interest (VOI). The acquired PET data were sorted into 0.5 mm sinogram bins and 25 time frames (4 × 15 s, 4 × 60 s, and 17 × 300 s) for image reconstruction using FORE/3D-OSEM-MAP. The reconstructed PET/CT images were analyzed with the Siemens Inveon Research Workplace software v4.0 or other appropriate software. The radioactivity retention within the selected tissue was obtained from mean voxel intensity values within the VOI and then converted to megabecquerels per milliliter using the calibration factor determined for the Inveon PET System. […]

[1] = Stability of the formulated product by analytical HPLC; type: physicochemical
Method: Stability of the product was monitored via analytical HPLC over time.
Approximately 2000 mCi of [^18F]fluoride was produced on a GE PETtrace 800 cyclotron and delivered to the ^18F target delivery vial of a GE FX2 N radiosynthesis module (Figure 4). The irradiated target water was passed through a pre-conditioned Sep-PAK Light QMA Cartridge to trap [^18F]fluoride, followed by elution from the cartridge into reactor 1 using 3 mg […] and 13 mg Cryptand 222 in 0.6 mL of 50% acetonitrile in water. The contents of reactor 1 were dried via azeotropic distillation using a combination of heating, helium flow, and vacuum. An additional 1 mL of acetonitrile was introduced to reactor 1 and the azeotropic drying process was repeated. The reactor temperature was then reduced to 30 °C, followed by introduction of 4-pentynyl p-tosylate (10 mg, ABX GmbH, Radeberg, Germany) in 1.0 mL acetonitrile (anhydrous). The reactor was then sealed and heated to 110 °C and allowed to react with stirring for 3 min. Reactor 1 was then opened to reactor 2, with the reactor 1 needle in the “up” position. […]

bone uptake (tracer defluorination) (wild type mice; PET images): No bone uptake | peak standardized uptake value (SUV), kidneys (wild type mice; at 3 min): ~ 18 SUV | standardized uptake value after washout, all organs (wild type mice; by 30 min until end of 90 min scan): lower than 1 SUV | decrease in RCP ([1]; after 6 h, with sodium ascorbate in the formulation (5 mg/mL)): less than 3% | decrease in RCP ([1]; after 6 h at room temperature, 10% EtOH in saline): 5–8%
SMILES: O=C(CCCCCCCn1cc(CCC[18F])nn1)N1C2C(O)C(O)C(O)C(CO)C21 (centres unmarked) [[^18F]AGAL]
